Assay [1] deals with antibody raised against Tyr-(CGRP amino acids 25-37)-amide. The assay is described as follows: Radioimmunoassay cross-reactivity with 125I-Tyr-(CGRP amino acids 25-37)-amide tracer. Format: binding, rabbit. Particulars: 1:12500 dilution of serum, 1800 cpm tracer, 400 μl assay. As for the experimental part:
Cells from a 500 ml culture were harvested and lysed in a lysozyme/sodium deoxycholate mixture (5 ml), then treated with DNase for 30 mins. at 5° C. (Emtage J. S. et al PNAS (1983), 80, p 3671-3675). […] Radioimmunoassay was carried out in 0.05M phosphate buffer pH 7.4 in a final volume of 400 ul (see Girgis, S. I. et al J. Endocrinol 78, 372-382). Antiserum was raised in rabbits, using the known techniques, against Tyr-(CGRP amino acids 25-37)-amide and conjugated to chick ovalbumin (Reichlin, M.1980, Meth.Enzymol 70 159-165) and against ^125 I Tyr-(CGRP amino acids 25-37)-amide tracer.
The tracer was iodinated using the Chloramine T method of Hunter and Greenwood.

In assay [2] the test system is guinea-pig right atrial preparation. The experiment in a line: Rate and force of contraction of isolated guinea-pig right atrium. Format: cell-based. As to the method:
Male Dunkin Hartley guinea-pigs (280-400 g) were killed by cervical dislocation and exsanguinated. The heart was removed, the right atrium dissected out and mounted under 0.5 g tension in Krebs solution (mM): NaCl 118, KCl 4.7, CaCl2 2.5, KH2 PO4 1.18, NaHCO3 25, MgSO4 1.18 and glucose 11.1, at 34° C. bubbled with 95:5 02 :CO2. Atrial force and rate were measured isometrically by a Grass FT.03 transducer and recorded on a Grass polygraph. Single doses of either human or rat CGRP were given in a random order.

Assay [3] relates to pentobarbitone anaesthetised rat. The experiment in a line: Cardiovascular actions (mean arterial pressure, heart rate) after i.v. administration in anaesthetised rats. Format: in vivo. As for the experimental part: Groups of 4 to 6 male Sprague-Dawley rats (285-315 g) were anaesthetised with sodium pentobarbitone (60 mg Kg^-1 i.p.). The trachea, left carotid artery and left jugular vein were cannulated. Blood pressure was recorded from the carotid artery on a Grass polygraph via a Statham P23 ID pressure transducer and mean arterial pressure derived from the trace. Heart rate was measured by a tachograph (Grass model 7P4) triggered by the blood pressure signal. […] Purified rat CGRP was from the same source. All synthetic preparations were subject to mass spectrometry (M-Scan Ltd.) to confirm structure and purity before use. […] All compounds were administered intravenously except for mepyramine (s.c.). […] The peak fall in mean arterial pressure (MAP) and heart rate (HR) after 2 min was measured.
The mechanism of action of PDA-4 was not examined.

[4] abbreviates: cumulative doses at 2 min intervals, anaesthetised rat.

Consider `CC(C)C[C@H](NC(=O)[C@H](CCCCN)NC(=O)CNC(=O)[C@H](CC(C)C)NC(=O)[C@@H](NC(=O)[C@@H]1CSSC[C@H](N)C(=O)N[C@@H](CO)C(=O)N[C@@H](CC(N)=O)C(=O)N[C@@H](CC(C)C)C(=O)N[C@@H](CO)C(=O)N[C@@H]([C@@H](C)O)C(=O)N1)C(C)C)C(=O)N[C@@H](CO)C(=O)N[C@@H](CCC(N)=O)C(=O)N[C@@H](CCC(=O)O)C(=O)N[C@@H](CC(C)C)C(=O)N[C@@H](Cc1c[nH]cn1)C(=O)N[C@@H](CCCCN)C(=O)N[C@@H](CC(C)C)C(=O)N[C@@H](CCC(N)=O)C(=O)N[C@H](C(=O)N[C@@H](Cc1ccc(O)cc1)C(=O)N1CCC[C@H]1C(=O)N[C@@H](CCCNC(=N)N)C(=O)N[C@H](C(=O)N[C@@H](CC(N)=O)C(=O)N[C@H](C(=O)NCC(=O)N[C@@H](CO)C(=O)NCC(=O)N[C@H](C(=O)N1CCC[C@H]1C(N)=O)[C@@H](C)O)[C@@H](C)O)[C@@H](C)O)[C@@H](C)O` [salmon calcitonin], for which, in assay [1], the “cross-reaction with the antibody (displacement of tracer)” value (shortened to “cross-reaction with the antibody”) is listed as “does not cross-react”.
In the case of “Tyr-CGRP (amino acids 1-8): tyrosinated fragment of human CGRP, amino acids 1 to 8 (ACDTATCV; Calcitonin gene-related peptide 1 N-terminal tyrosine added; UniProt P06881 83-90, looked up, fragment)”, the “cross-reaction with the antibody” value in assay [1] is on record as “does not cross-react”.
Regarding “human calcitonin: human calcitonin, tested for cross-reaction in the radioimmunoassay”, in assay [1], the “cross-reaction with the antibody” value is recorded as “does not cross-react”.
Same read-out and setting: with “katacalcin: carboxy terminal peptide designated PDN-21 (Katacalcin) of the human calcitonin polyprotein (DMSSDLERDHRPHVSMPQNAN; Katacalcin; UniProt P01258 121-141, looked up)” the entry was “does not cross-react”.
“rat CGRP: synthetic rat CGRP preparation from Peninsula Laboratories”: the “cross-reaction with the antibody” value in assay [1] is given as “recognises antigenic determinants”. In addition, in assay [2] (isolated right atrium), the “potency relative to human CGRP at increasing rate (times more potent)” value is on record as “approximately 10 times” and the “potency relative to human CGRP in evoking increases in force” value is listed as “equipotent”. Moreover, in assay [2] (propranolol), the “increase in rate or force in presence of propranolol” value was “Neither the increase in rate or force produced by rat CGRP was blocked”. In addition, in assay [3] (setting [4]), the “fall in mean arterial pressure (MAP)” value was “dose-dependent fall in MAP” and the “increase in heart rate (HR)” value is given as “increase in HR”. For the same compound, the “dose representing a 50% decrease in blood pressure” value in assay [3] (pentobarbitone anaesthetised rat) was 0.23 nmol/kg.

These data come from patent US5374618A, “Calcitonin peptides, and gene related pharmaceutical compositions” (Celltech Limited, priority 1983, dated 1994).
